In patent publication US20220142959A1, “LEUCINE, ACETYL LEUCINE, AND RELATED ANALOGS FOR TREATING DISEASE” (priority 2019, published 2022):

Key:
[1] = tested on: cerebellar Purkinje cells; test: Purkinje cell survival in Npc1−/− mice; assay type: in vivo
Excerpt: (§1) FIG. 46 is an image showing cerebellar Purkinje cell loss progressing from anterior to posterior lobes and microglial activation in untreated Npc1^−/− mice and Npc1^−/− mice treated with ADLL, ALL, and ADL. Cerebellums were stained with calbindin-b (Purkinje cells) or CD68 (activated microglia).
FIG. 47 is a scatter graph showing Purkinje cell survival at 59 days of age in untreated Npc1^−/− mice and Npc1^−/− mice treated with ADLL, ALL, and ADL.
(§2) The combination of increased survival of neurons and a less inflammatory environment in the brain could improve brain function, quality of life, and delay the progression of disease in human subjects.

LC3-II and APP-CTFs = test: EAL flux in NPC1 mice (cerebellum LC3-II and APP-CTFs); assay type: in vivo, mouse; conditions: treated 3 weeks; for restoring autophagic flux with respect to reducing LC3-II levels: relative to untreated NPC1
Excerpt: FIG. 14 is a histogram of the ratio of LC3-II expression to βIII-tubulin in the cerebellum of mouse NPC1 brains at 9-12 weeks of age treated with ADLL, ALL, ADL, DLL, LL, DL, LLE, and miglustat (miglu.) for 3 weeks relative to untreated NPC1 cerebellum (n=4, mean±S.E.M).
FIG. 15 is a histogram of the ratio of APP-CTFs: full-length APP expression in the cerebellum of mouse NPC1 brains at 9-12 weeks of age treated with ADLL, ALL, ADL, DLL, LL, DL, LLE, and miglustat (miglu.) for 3 weeks relative to untreated NPC1 cerebellum (n=4, mean±S.E.M).
FIG. 16 is a histogram of the ratio of APP-CTF-6: full-length APP expression in the cerebellum of mouse NPC1 brains at 9-12 weeks of age treated with ADLL, ALL, ADL, DLL, LL, DL, and LLE for 3 weeks relative to untreated NPC1 cerebellum.
FIG. 17 is a histogram of the ratio of APP-CTF-7: full-length APP expression in the cerebellum of mouse NPC1 brains at 9-12 weeks of age treated with ADLL, ALL, ADL, DLL, LL, DL, and LLE for 3 weeks relative to untreated NPC1 cerebellum (n=4, mean±S.E.M).
The efficacy of ADLL, ALL, ADL, DLL, LL, DL, and LLE in alleviating the impairment of EAL flux in NPC1 mice was investigated. […] Without wishing to be bound by any particular theory, it is possible that ADL and LLE reduced autophagic vacuole (AV) build-up by inhibiting autophagosome formation, possibly through the activation mTORC1. […] Also, acetyl L-leucine (ALL), acetyl D-leucine (ADL) and L-leucine (LL) reduced CTF-7 expression, indicating some improvement in lysosomal proteolysis (FIG. 17).

[2] = tested on: CD68 positive activated microglia; test: CD68 positive activated microglia in cerebellum of Npc1−/− mice; assay type: in vivo; conditions: 59 days of age, compared to Npc1−/− UT
Excerpt: as §1
FIG. 48 is a scatter graph showing frequency of CD68 positive activated microglia at 59 days of age in untreated Npc1^−/− mice and Npc1^−/− mice treated with ADLL, ALL, and ADL. CD68 cell density was measured in the cerebellum. n=5 animals per group. Mean±SD, *** p<0.0009 (one-way ANOVA).
as §2

[3] = tested on: rat primary cortical neurons; test: U18666A-mediated impairment of lysosomal fusion in rat primary cortical neurons; assay type: cell-based; conditions: for CTF-6 and -7 (endosomal-lysosomal fusion) / LC3-II levels: co-treated with U18666A (2 μg/mL) and compound 1 mM
Experimental: (§3) FIG. 18. is a histogram of the ratio of LC3-II normalised to βIII tubulin (expressed as a percentage of untreated (n=1)) in rat primary cortical neurons that were treated with U18666A (2 μg/ml, 24 hr) in the absence or presence of ADLL, ALL, ADL, DLL, LL, DL, and LLE (1 mM, 24 hr).
as §3, with “19” for “18.”, “is” for “is a”, “APP-CTFs-6 and -7” for “LC3-II”, “their respective CTFs in untreated cells” for “βIII tubulin”, “(n=1)” for “(n=1))”
The efficacy of ADLL, ALL, ADL, DLL, LL, DL, and LLE in alleviating the U18666A-mediated impairment of autophagosome-lysosome fusion and endosomal lysosomal fusion was investigated. In this cell-based assay of impaired EAL flux, the reappearance of basal levels of APP CTFs-6 and -7, provided an indication of improved endosomal-lysosomal fusion.
Neurons were co-treated with U18666A (2 μg/mL) along with ADLL, ALL, ADL, DLL, LL, DL, and LLE (1 mM, 24 h).

[4] = tested on: rat primary cortical neurons (NE and NG cultures); test: Truncated tau and neuronal markers in neuron-enriched and neuron-glia cultures; assay type: cell-based; conditions: for tolerability (levels of synaptophysin and βIII-tubulin vs untreated control): NE and NG cultures, 1 mM, five days (DIV 9-14); for reduction of basal levels of truncated tau: NG cultures at DIV14, 1 mM, five days
Experimental: FIG. 20 is eight Western blots of tau (5E2), synaptophysin and βIII-tubulin in rat primary cortical neurons (neuron-enriched (NE) and neuron-glia (NG) cultures) in the absence and presence of ADLL, ALL, ADL, DLL, LL, DL, and LLE (1 mM, 5 days).
The efficacy of ADLL, ALL, ADL, DLL, LL, DL, and LLE in reducing truncated tau levels in neuron-glia (NG) cultures was investigated. The results of this study are provided in FIGS. 20-24 One aim of this study was to determine whether ADLL, ALL, ADL, DLL, LL, DL, and LLE conferred intrinsic neuroprotection by sustaining neuronal function under conditions of cellular overgrowth, or whether they acted indirectly through the non-autonomous modulation of glial cells. Irrespective of whether the compounds acted directly or indirectly on neurons, preventing the generation of truncated tau confers beneficial effects to neuronal integrity.
Cultures were treated for five days (DIV 9-14) with 1 mM of ADLL, ALL, ADL, DLL, LL, DL, or LLE, and were subsequently assessed for a number of neuron-specific markers that could provide a readout on neuronal health: βIII-tubulin, full-length tau, truncated tau (antibody 5E2) and synaptophysin. ADLL, ALL, ADL, DLL, LL, DL, and LLE were well-tolerated in NE and NG cultures, as evidenced by consistently equal levels of synaptophysin and βIII-tubulin detected across untreated (control) and drug-treated samples (FIGS. 20, 23, and 24). None of ADLL, ALL, ADL, DLL, LL, DL, and LLE reduced basal levels of truncated tau in NG cultures at DIV14 (FIG. 20 and FIG. 22).

[5] = tested on: patients with cerebellar ataxia; conditions: cited from earlier work
patients with ataxia = conditions: in responders; cited from earlier work
[6] = tested on: patients with Niemann-Pick Type C (NPC); conditions: one-month study, 12 patients; cited from earlier work
LC3-II = conditions: WO 2018/029658; cited from earlier work
[7] = tested on: traumatic brain injury patient; test: Case report: patient with traumatic brain injury given acetyl-DL-leucine; assay type: in vivo, human; conditions: TBI patient
Experimental: A patient suffering from traumatic brain injury was administered acetyl-DL-leucine at a dose of 3 g per day for the first week, followed by a dose of 5 g per day.

[8] = 59 days of age, relative to untreated Npc1−/− littermates

For `CC(=O)N[C@H](CC(C)C)C(=O)O` [ADL, acetyl-D-leucine], the “Purkinje cell survival in any cerebellar lobules” value ([1]; 59 days of age, compared to Npc1−/− UT) was “did not improve”, the long-term neuroprotective effects ([1]; Npc1−/− mice) was “did not mediate any” and the “CTF-7 expression / clearance” value (LC3-II and APP-CTFs) was “reduced”. The “impact on frequency of CD68 positive activated microglia” value [2] was “did not have an impact”, the “CTF-6 and -7 (endosomal-lysosomal fusion)” value ([3]; 24 h) was “reappearance of basal amounts” and the LC3-II levels ([3]; 24 h) was “lower than the basal levels”. The “tolerability (levels of synaptophysin and βIII-tubulin vs untreated control)” value [4] was “well-tolerated” and the “reduction of basal levels of truncated tau” value (shortened to “reduction … of truncated tau”) [4] was “None”.

In the case of `CC(C)C[C@@H](N)C(=O)O` [DL, D-leucine], the “CTF-7 expression / clearance” value (LC3-II and APP-CTFs) is reported as “positive effects”, the “CTF-6 and -7 (endosomal-lysosomal fusion)” value ([3]; 24 h) is reported as “reappearance of basal amounts” and the “tolerability (levels of synaptophysin and βIII-tubulin vs untreated control)” value [4] is reported as “well-tolerated”. The “reduction … of truncated tau” value [4] was “None”.

In the case of `CCOC(=O)[C@@H](N)CC(C)C` [LLE, L-leucine ethyl ester], the “reduction in APP-CTFs, particularly CTF-6 and -7” value (LC3-II and APP-CTFs) is reported as “not accompanied by a concomitant reduction”, the “restoring autophagic flux with respect to reducing LC3-II levels” value (LC3-II and APP-CTFs) is reported as “effective in restoring autophagic flux” and the “CTF-6 and -7 (endosomal-lysosomal fusion)” value ([3]; 24 h) is reported as “reappearance of basal amounts”. For the same compound, the “tolerability (levels of synaptophysin and βIII-tubulin vs untreated control)” value [4] was “well-tolerated” and the “reduction … of truncated tau” value [4] was “None”.

For `CCN(CC)CCO[C@H]1CC[C@@]2(C)C(=CC[C@@H]3[C@@H]2CC[C@]2(C)C(=O)CC[C@@H]32)C1` [U18666A, reference compound], the “CTFs-6 and 7” value ([3]; U18666A alone 2 μg/mL, 24 hr, DIV14) was “complete absence” and the LC3-II accumulation ([3]; U18666A alone, 24 h) was “did not cause an increase”.

In the case of `CC(=O)NC(CC(C)C)C(=O)O` (racemic) [ADLL, acetyl-DL-leucine], the “benefit, another case series (Pelz et al. 2015)” value ([5]; cerebellar patients) is given as “did not find benefit”, the “cerebellar ataxia symptoms, case series (Strupp et al. 2013)” value ([5]; cerebellar patients) is given as “symptomatic improvement” and the “temporal gait variability (quantitative gait analysis)” value ([5]; patients with cerebellar ataxia) is given as “improved”. The “more Purkinje cells in lobule III” value [1, 8] was 402%, the “more Purkinje cells present in lobules I and II” value [1, 8] was 133% and the “metabolism in the midbrain and lower brainstem (PET)” value (patients with ataxia) was “increased metabolism”. The “reduction in APP-CTFs, particularly CTF-6 and -7” value (LC3-II and APP-CTFs) was “not accompanied by a concomitant reduction”, the “restoring autophagic flux with respect to reducing LC3-II levels” value (LC3-II and APP-CTFs) was “effective in restoring autophagic flux” and the “impact on frequency of CD68 positive activated microglia” value [2] was “did not have an impact”. The “ataxia symptoms in NPC patients” value [6] was “symptomatic improvement of ataxia”, the “LC3-II in NPC1 mouse brain” value (LC3-II) was “lowering of LC3-II” and the “CTF-6 and -7 (endosomal-lysosomal fusion)” value ([3]; 24 h) was “reappearance of basal amounts”. For the same compound, the LC3-II levels ([3]; 24 h) was “lower than the basal levels”, the “tolerability (levels of synaptophysin and βIII-tubulin vs untreated control)” value [4] was “well-tolerated” and the “reduction … of truncated tau” value [4] was “None”. The “behaviour / level of activity after treatment” value ([7]; 3 g per day first week, then 5 g per day) was “more active behaviour” and the “level of activity after medication was stopped” value ([7]; medication stopped) was “returned to its original level”.

For `CC(C)C[C@H](N)C(=O)O` [LL, L-leucine], the CTF-6 accumulation (LC3-II and APP-CTFs) was “did reduce”, the “CTF-7 expression / clearance” value (LC3-II and APP-CTFs) was “reduced” and the “CTF-6 and -7 (endosomal-lysosomal fusion)” value ([3]; 24 h) was “reappearance of basal amounts”. For the same compound, the “tolerability (levels of synaptophysin and βIII-tubulin vs untreated control)” value [4] was “well-tolerated” and the “reduction … of truncated tau” value [4] was “None”.

With `CC(C)CC(N)C(=O)O` (racemic) [DLL, DL-leucine] the “CTF-6 and -7 (endosomal-lysosomal fusion)” value ([3]; 24 h) was “reappearance of basal amounts”, the “tolerability (levels of synaptophysin and βIII-tubulin vs untreated control)” value [4] was “well-tolerated” and the “reduction … of truncated tau” value [4] was “None”.
